# Measured values from patent US9187492B2, “Pyripyropene derivative having ACAT2 inhibiting activity and stable to metabolizing enzymes” (School Juridical Person Kitasato Institute, priority 2010, dated 2015).
# Read-outs that look alike come from different tables or passages of the source.
# Experiments:
# ACAT2 = molecular target: T1, ACAT2 (Mus musculus, UniProt O88908); test: Measurement of ACAT2-inhibiting activity (murine hepatic microsome, [14C]cholesteryl oleate formation); assay type: biochemical
# T1 construct: The resulting sediment was collected as a microsome fraction; from tissue; host or cells: mouse liver (hepatic microsome membrane fraction)
# T1 sequence (O88908 1-525): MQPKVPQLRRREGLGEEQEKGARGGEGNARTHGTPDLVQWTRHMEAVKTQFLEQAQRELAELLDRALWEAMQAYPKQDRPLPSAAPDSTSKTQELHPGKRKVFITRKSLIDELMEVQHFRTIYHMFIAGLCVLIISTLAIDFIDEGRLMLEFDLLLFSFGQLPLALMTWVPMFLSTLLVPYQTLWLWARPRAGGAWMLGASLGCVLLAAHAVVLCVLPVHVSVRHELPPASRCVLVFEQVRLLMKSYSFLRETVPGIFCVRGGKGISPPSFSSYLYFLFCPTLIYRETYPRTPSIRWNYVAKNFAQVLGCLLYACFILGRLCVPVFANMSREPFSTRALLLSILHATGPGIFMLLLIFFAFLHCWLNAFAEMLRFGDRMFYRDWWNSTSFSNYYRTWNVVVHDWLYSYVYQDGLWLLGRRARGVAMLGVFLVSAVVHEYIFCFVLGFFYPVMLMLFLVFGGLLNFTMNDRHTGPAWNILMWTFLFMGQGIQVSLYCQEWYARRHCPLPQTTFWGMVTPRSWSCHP
# Method: The enzyme source which was used was a membrane fraction derived from murine hepatic microsome. Mouse livers were homogenized in buffer solution A (50 mM Tris HCl solution (pH 7.8), 1 mM ethylene diamine tetraacetate, and 1 mM phenylmethanesulfonyl fluoride) using a Potter-type homogenizer (Tokyo-Riko). The homogenate was centrifuged at 12000×g, and the supernatant was subjected to ultracentrifugation at 100000×g. The resulting sediment was collected as a microsome fraction, and this fraction was adjusted so as to have a protein concentration of 5 mg/mL using buffer solution A.
# As a control, 10 μL of methanol were used in place of the pyripyropene derivative.
# The chloroform layer was evaporated to dryness and was used to spot a thin layer chromatography plate (silica gel plate, Merck, 0.5 mm thickness). Elution for separation was carried out using hexane/diethyl ether/acetic acid (70:30:1, v/v) as an eluant.
# wherein the background is the radioactivity of a thin layer chromatography plate which was not spotted.
# [1] = Stability against metabolizing enzymes in the liver (hepatic microsome); conditions: time until remaining amount reached 50%, 37° C.; for half-life at 6 μg/mL: female, Sprague-Dawley (SD), rat, liver microsomes, pH 7.4, Half-life; for Half-life: female SD rat hepatic microsome, 6 μg/mL, pH 7.4
# [2] = read-out: Inhibitory activity (concentration required for 50% inhibition of ACAT 2 = IC50); murine hepatic microsome membrane fraction, 5 min at 37° C.
# [3] = murine hepatic microsome membrane fraction, 5 min at 37° C.; read-out: Inhibitory activity (concentration required for 50% inhibition of ACAT 2 = IC50)
# [4] = relative to PRD 043; class symbols
Structure (SMILES),IC50 (ACAT2; [2]),Specific activity ((IC50 of the test compound)/(IC50 of PRD 043)) (ACAT2; relative to PRD 043; given as number),half-life at 6 μg/mL [1],Half-life [1],IC50 (ACAT2; [3]),Specific activity ((IC50 of the test compound)/(IC50 of PRD 043)) (ACAT2; [4])
"COc1cccc(C(=O)O[C@H]2CC3C(C)(COC(C)=O)[C@@H](OC(C)=O)CC[C@]3(C)C3[C@@H](O)c4c(cc(-c5cccnc5)oc4=O)O[C@@]32C)c1 (stereo partly drawn) [PRD043, reference compound]",> 10 nM,1,≥ 9 h,>9 h,,
"CC(=O)O[C@H]1CC[C@@]2(C)C(C[C@H](OC(=O)c3ccc(C#N)cc3)[C@@]3(C)Oc4cc(-c5cccnc5)oc(=O)c4[C@H](O)C23)C1(C)COC(=O)c1ccccc1 (stereo partly drawn) [PRD143, 7-O-p-cyanobenzoyl-7,11-dideacetyl-11-O-benzoylpyripyropene A]",,,≥ 9 h,>9 h,0.5 to 1 nM,+++ (10<specific activity≦20)
"CC(=O)O[C@H]1CC[C@@]2(C)C(C[C@H](OC(=O)c3ccc(C#N)cc3)[C@@]3(C)Oc4cc(-c5cccnc5)oc(=O)c4[C@H](O)C23)C1(C)C(=O)O (stereo partly drawn) [PRD069, 7-O-p-cyanobenzoyl-11-deacetoxymethyl-7-deacetyl-11-carboxy-pyripyropene A]",,,≥ 9 h,>9 h,< 0.5 nM,++++ (20<specific activity)
"COc1ccccc1[C@@H]1OCC2(C)C3C[C@H](OC(=O)c4ccc(C#N)cc4)[C@@]4(C)Oc5cc(-c6cccnc6)oc(=O)c5[C@H](O)C4[C@@]3(C)CC[C@@H]2O1 (stereo partly drawn) [PRD161, 1,11-O-o-methoxybenzylidene-7-O-p-cyanobenzoyl-1,7,11-trideacetylpyripyropene A]",,,≥ 9 h,>9 h,0.5 to 1 nM,+++ (10<specific activity≦20)
"COc1ccccc1[C@@H]1OCC2(C)C3C[C@H](OC(=O)c4ccc(F)cc4)[C@@]4(C)Oc5cc(-c6cccnc6)oc(=O)c5[C@H](O)C4[C@@]3(C)CC[C@@H]2O1 (stereo partly drawn) [PRD162, 1,11-O-o-methoxybenzylidene-7-O-p-fluorobenzoyl-1,7,11-trideacetylpyripyropene A]",,,≥ 9 h,>9 h,1 to 10 nM,+++ (10<specific activity≦20)
"COc1ccc(C(OC)O[C@H]2CC3C4(C)CO[C@@H](c5ccccc5)O[C@H]4CC[C@]3(C)C3[C@@H](O)c4c(cc(-c5cccnc5)oc4=O)O[C@@]32C)cc1 (stereo partly drawn) [PRD073, 1,11-O-benzylidene-1,7,11-trideacetyl-7-O-(1-methoxy-1-p-methoxyphenyl)methylpyripyropene A]",,,≥ 9 h,>9 h,0.5 to 1 nM,+++ (10<specific activity≦20)
"Cc1ccc([C@@H]2OCC3(C)C4C[C@H](OC(=O)c5ccc(F)cc5)[C@@]5(C)Oc6cc(-c7cccnc7)oc(=O)c6[C@H](O)C5[C@@]4(C)CC[C@@H]3O2)c(C)c1 (stereo partly drawn) [PRD160, 1,11-O-o,p-dimethylbenzylidene-7-O-p-fluorobenzoyl-1,7,11-trideacetylpyripyropene A]",,,≥ 9 h,>9 h,0.5 to 1 nM,+++ (10<specific activity≦20)
"CC1(COC(=O)c2ccccc2)C2C[C@H](OC(=O)c3ccc(C#N)cc3)[C@@]3(C)Oc4cc(-c5cccnc5)oc(=O)c4[C@H](O)C3[C@@]2(C)CC[C@@H]1OC(=O)c1ccccc1 (stereo partly drawn) [PRD166, 7-O-p-cyanobenzoyl-1,11-O-dibenzoyl-1,7,11-trideacetylpyripyropene A]",,,≥ 9 h,>9 h,0.5 to 1 nM,+++ (10<specific activity≦20)
"Cc1ccc([C@@H]2OCC3(C)C4C[C@H](OC(=O)c5ccc(C#N)cc5)[C@@]5(C)Oc6cc(-c7cccnc7)oc(=O)c6[C@H](O)C5[C@@]4(C)CC[C@@H]3O2)c(C)c1 (stereo partly drawn) [PRD159, 1,11-O-o,p-dimethylbenzylidene-7-O-p-cyanobenzoyl-1,7,11-trideacetylpyripyropene A]",,,≥ 9 h,>9 h,0.5 to 1 nM,+++ (10<specific activity≦20)
"Cc1ccc([C@@H]2OCC3(C)C4C[C@H](OC(=O)c5ccc(C#N)cc5)[C@@]5(C)Oc6cc(-c7cccnc7)oc(=O)c6[C@H](O)C5[C@@]4(C)CC[C@@H]3O2)cc1 (stereo partly drawn) [PRD126, 1,11-O-p-methylbenzylidene-7-O-p-cyanobenzoyl-1,7,11-trideacetylpyripyropene A]",,,≥ 9 h,>9 h,0.5 to 1 nM,+++ (10<specific activity≦20)
"CC12CO[C@@H](c3cccc4ccccc34)O[C@H]1CC[C@@]1(C)C2C[C@H](OC(=O)c2ccc(C#N)cc2)[C@@]2(C)Oc3cc(-c4cccnc4)oc(=O)c3[C@H](O)C12 (stereo partly drawn) [PRD180, 1,11-O-o-naphthylidene-7-O-p-cyanobenzoyl-1,7,11-trideacetylpyripyropene A]",,,≥ 9 h,>9 h,1 to 10 nM,+++ (10<specific activity≦20)
"CC(C)C(=O)OCC1(C)C2C[C@H](OC(=O)c3ccc(C#N)cc3)[C@@]3(C)Oc4cc(-c5cccnc5)oc(=O)c4[C@H](O)C3[C@@]2(C)CC[C@@H]1OC(=O)C(C)C (stereo partly drawn) [PRD056, reference compound]",> 10 nM,,≥ 9 h,>9 h,,− (0.1≦specific activity<1)
"Cc1ccc([C@@H]2OCC3(C)C4C[C@H](OC(=O)c5ccc(F)cc5)[C@@]5(C)Oc6cc(-c7cccnc7)oc(=O)c6[C@H](O)C5[C@@]4(C)CC[C@@H]3O2)cc1 (stereo partly drawn) [PRD156, 1,11-O-p-methylbenzylidene-7-O-p-fluorobenzoyl-1,7,11-trideacetylpyripyropene A]",,,≥ 9 h,>9 h,< 0.5 nM,++++ (20<specific activity)
"Cc1cccc(C)c1[C@@H]1OCC2(C)C3C[C@H](OC(=O)c4ccc(C#N)cc4)[C@@]4(C)Oc5cc(-c6cccnc6)oc(=O)c5[C@H](O)C4[C@@]3(C)CC[C@@H]2O1 (stereo partly drawn) [PRD181, 1,11-O-o,o-dimethylbenzylidene-7-O-p-cyanobenzoyl-1,7,11-trideacetylpyripyropene A]",,,≥ 9 h,>9 h,0.5 to 1 nM,+++ (10<specific activity≦20)
"CC12CO[C@@H](c3ccccc3F)O[C@H]1CC[C@@]1(C)C2C[C@H](OC(=O)c2ccc(C#N)cc2)[C@@]2(C)Oc3cc(-c4cccnc4)oc(=O)c3[C@H](O)C12 (stereo partly drawn) [PRD163, 1,11-O-o-fluorobenzylidene-7-O-p-cyanobenzoyl-1,7,11-trideacetylpyripyropene A]",,,≥ 9 h,>9 h,0.5 to 1 nM,+++ (10<specific activity≦20)
"CC12CO[C@@H](c3ccccc3)O[C@H]1CC[C@@]1(C)C2C[C@H](OC(=O)c2ccccc2)[C@@]2(C)Oc3cc(-c4cccnc4)oc(=O)c3[C@H](O)C12 (stereo partly drawn) [PRD122, 1,11-O-benzylidene-7-O-benzoyl-1,7,11-trideacetylpyripyropene A]",,,≥ 9 h,>9 h,0.5 to 1 nM,+++ (10<specific activity≦20)
"Cc1cccc([C@@H]2OCC3(C)C4C[C@H](OC(=O)c5ccc(F)cc5)[C@@]5(C)Oc6cc(-c7cccnc7)oc(=O)c6[C@H](O)C5[C@@]4(C)CC[C@@H]3O2)c1 (stereo partly drawn) [PRD158, 1,11-O-m-methylbenzylidene-7-O-p-fluorobenzoyl-1,7,11-trideacetylpyripyropene A]",,,≥ 9 h,>9 h,1 to 10 nM,+++ (10<specific activity≦20)
"CC(=O)OCC1(C)C2C[C@H](OC(=O)c3ccc(C#N)cc3)[C@@]3(C)Oc4cc(-c5cccnc5)oc(=O)c4[C@H](O)C3[C@@]2(C)CC[C@@H]1OC(=O)C(C)C (stereo partly drawn) [PRD119, 7-O-p-cyanobenzoyl-1,7-dideacetyl-1-O-isobutyrylpyripyropene A]",,,≥ 9 h,>9 h,0.5 to 1 nM,++++ (20<specific activity)
